Numbers after ± are expanded uncertainties.
Columns and labels:
[1] = 298.15 K, 101.33 kPa, Liquid
[2] = refractive index (Na D-line) (dimensionless); conditions: 298.15 K; 101.33 kPa; Liquid; Standard Abbe refractometry

Row | SMILES | mass density ([1]; Vibrating tube method) [kg/m3] | refractive index [2] | electrical conductivity [1] [S/m]
1 | CN1CCN(C)C1=O [1,3-dimethyl-2-imidazolidinone] | 1052.23 ± 1.2 | 1.4713 ± 0.0008 | 
2 | O [water] |  |  | 1.3e-05 ± 1e-06
